Laboratory results published in patent US6858589B2, “Methods of and compositions for potentiating the action of agents active on cell wall sites of the susceptible bacteria” (priority 1996, dated 2005).
In brackets after ≈: the same amount, converted by molar mass. Like-named read-outs stand apart in the source and are kept apart here.

Experiments:
[1] = system: blood culture isolate of cMRSA; experiment: MIC and MBC for the cMRSA isolate; format: cell-based, Staphylococcus aureus; details: mecA positive
Procedure: The student test was used for statistical analysis with a significant level of 0.05, it was performed using the Sigma Stat 32 program (SPSS Inc 1992-1997).

E. coli NCTC 10418 = experiment: E. coli exposed to constant concentrations of cephazolin alone; format: cell-based, Escherichia coli
Excerpt: In comparative experiments described in the examples herein, a reference strain of Escherichi coli (E. coli NCTC 10418) was exposed to constant concentrations of cephazolin in the culture medium (see FIGS. 1A and IIA). As these concentrations were varied, the growth of the bacterial culture was changed. […] As concentrations in the medium were increased, there was a major decline in numbers and a delay in regrowth.
The organisms in the media were able to maintain their numbers in a reduced state even in the continuing presence of cephazolin. This outcome is due to the exclusion of cephalosporins by porin channels in the outer cell wall and to the action of cephalosporinase which keeps cephazolin levels at the site(s) of action below that required for full bactericidal effect.
The cephalosporin effect reached a maximum when E. coli growth was reduced to 10 colony forming units(cfu)/ml (see FIG. IIB).

[2] = system: blood culture isolate of cMRSA; experiment: Kill kinetics and regrowth patterns of cMRSA exposed to gentamicin profiles and constant beta-lactam; format: cell-based, Staphylococcus aureus; details: for Outcome of exposure: each agent alone
Procedure: FIGS. 5a and 5b Kill kinetics and regrowth patterns of a clinical isolate of cMRSA.
The CMRSA isolate was cultured in the presence of gentamicin (Delta West, Bentleigh, Australia). An overnight culture of cMRSA in brain heart infusion broth (BHIB) (Oxoid, Bainstoke, England) was diluted to 10^7 CFU/ml in 0.1% peptone water (Oxoid, Bainstoke, England). A 1 ml sample of the 10^7 CFU/ml culture was added to the experimental culture broth, resulting in an initial density of 10^6 CFU/ml. In vitro concentration-time modeling of clinical plasma gentamicin concentration-time profiles assumed linear extrapolation of in vivo data as reported previously.^18 (Bastone et al Antimicrobial Agents and Chemotherapy 37(4): 914-917, 1993). […] Other profiles were constructed by linear extrapolation of these profiles and included 7 and 16 mg/l bolus and infusion profiles. Colony counts were performed at times 0, 0.5, 2.5, 4.5, 6.5, 8.5, 10.5, 24.5 and 48.5 hours for bolus profiles and times 0, 1, 3, 5, 7, 9, 11, 25 and 49 hours for infusion profiles.
In the experiments involving cephazolin the concentration was maintained at 4 mg/l in the BHIB for the entire 48.5 hours. For the experiments involving flucloxacillin the concentration of flucloxacillin was maintained at 2 mg/l for 48.5 hours. Colony counts were performed at times 0, 0,5, 2.5, 4.5, 6.5, 8.5, 10.5, 24.5 and 48.5 hours. […] These included cMRSA in a drug free broth, cMRSA exposed to a bolus profile of gentamicin with a target Cpeak 30 of 6 mg/l only, cMRSA exposed to […] of flucloxacillin only.
All experiments involved six replicates. Gentamicin concentrations were measured at times 0, 0.16, 0.33, 0.5, 2.5, 4.5, 6.5, 8.5, 10.5, 24.5 and 48.5 hours. Gentamicin assay concentrations were determined by fluorescence polarisation immunoassay (AxSYM, Abbot, Ill., U.S.A.) which has a threshold for detection of 0.3 mg/liter. […] (Gibaldi et al, pharmaceutics 2nd edn, 1982).
The blood culture cMRSA isolate was exposed to gentamicin in vitro simulating an in vivo bolus dosing regimen with varying 30 minute post dose concentrations of gentamicin. The same organism was then exposed to gentamicin in vitro simulating an in vivo bolus dosing regime with a 30 minute post dose concentration of 6 mg/l and constant concentration of 4 mg/l of cephazolin or 2 mg/l of flucloxacillin for 48 hours.

[3] = system: Pseudomonas aeruoginosa, ATCC27853; experiment: MIC, Pseudomonas reference strain; format: cell-based, Pseudomonas aeruginosa
[4] = system: antibiotic resistant strain of Pseudomonas aeruoginosa isolated from a clinical patient; experiment: Tobramycin concentration-time profile kill study, resistant clinical strain; format: cell-based, Pseudomonas aeruginosa
Procedure: The time boundaries for maintained exposures with aminoglycoside may be 1.0-16 hours, while the required maintained concentrations will be a function of the resistance of the organism as determined by the minimum inhibitory concentration (MIC) of the pathogen isolated in culture and time-concentration requirements of the organism(s) being treated.
(§1) The range of aminoglycoside antibiotics was extended to include tobramycin, the bacterial species type was extended from Enterobacteriaceae to Pseudomonacea, and the organism response range broadened to include an antibiotic resistant strain in Pseudomonas studies.
(§2) In contrast, the resistant clinical strain required a peak concentration of 18 mg/l combined with a maintained level of 1 mg/l.

[5] = system: antibiotic resistant strain of Pseudomonas aeruoginosa isolated from a clinical patient; experiment: MIC, antibiotic resistant clinical Pseudomonas strain; format: cell-based, Pseudomonas aeruginosa
[6] = system: Pseudomonas aeruoginosa, ATCC27853; experiment: Tobramycin concentration-time profile kill study, reference strain; format: cell-based, Pseudomonas aeruginosa; details: 8 mg/l at 1 hour, reducing until 8.5 hr, then fixed 0.8 mg/l for 16 hours
Procedure: as §1, §2

[7] = 4 mg/l cephazolin alone throughout

Structure (SMILES): COc1cccc(OC)c1C(=O)N[C@@H]1C(=O)N2[C@@H]1SC(C)(C)[C@@H]2C(=O)O [methicillin]
- MBC ([1]; Staphylococcus aureus, read-out: MBC): > 32 µg/mL
- MIC ([1]; Staphylococcus aureus, read-out: MIC): 32 µg/mL (≈ 84.1 µM)

Structure (SMILES): Cc1nnc(SCC2=C(C(=O)O)N3C(=O)[C@@H](NC(=O)Cn4cnnn4)[C@H]3SC2)s1 [cephazolin]
- MBC [1]: 32 µg/mL (≈ 70.4 µM)
- MIC [1]: 32 µg/mL (≈ 70.4 µM)
- Outcome of exposure (E. coli NCTC 10418; cephalosporin alone, constant concentrations): not possible to produce a complete kill or eradication
- E. coli growth at maximum cephalosporin effect (E. coli NCTC 10418; constant concentrations of cephalosporin alone, up to 250 mg/l): 10 cfu/ml
- Growth of the culture (E. coli NCTC 10418; lowest concentration of cephazolin, 1.0 mg/l): delayed in relation to control
- Bacterial Count (E. coli NCTC 10418; maintained cephazolin 0.5 mg/L, 0 h): 5.88 ± 0.09 log 10 u/mL
- Bacterial Count (E. coli NCTC 10418; maintained cephazolin 0.5 mg/L, 2 h): 7.43 ± 0.28 log 10 u/mL
- Bacterial Count (E. coli NCTC 10418; maintained cephazolin 0.5 mg/L, 8 h): 8.67 ± 0.24 log 10 u/mL
- Bacterial Count (E. coli NCTC 10418; maintained cephazolin 0.5 mg/L, 24 h): 8.82 ± 0.06 log 10 u/mL
- Bacterial Count (E. coli NCTC 10418; maintained cephazolin 1.0 mg/L, 0 h): 5.83 ± 0.29 log 10 u/mL
- Bacterial Count (E. coli NCTC 10418; maintained cephazolin 1.0 mg/L, 2 h): 6.21 ± 0.76 log 10 u/mL
- Bacterial Count (E. coli NCTC 10418; maintained cephazolin 1.0 mg/L, 8 h): 8.59 ± 0.35 log 10 u/mL
- Bacterial Count (E. coli NCTC 10418; maintained cephazolin 1.0 mg/L, 24 h): 8.79 ± 0.05 log 10 u/mL
- Bacterial Count (E. coli NCTC 10418; maintained cephazolin 2.0 mg/L, 0 h): 5.88 ± 0.07 log 10 u/mL
- Bacterial Count (E. coli NCTC 10418; maintained cephazolin 2.0 mg/L, 2 h): 3.70 ± 0.32 log 10 u/mL
- Bacterial Count (E. coli NCTC 10418; maintained cephazolin 2.0 mg/L, 8 h): 4.98 ± 0.34 log 10 u/mL
- Bacterial Count (E. coli NCTC 10418; maintained cephazolin 2.0 mg/L, 24 h): 8.79 ± 0.05 log 10 u/mL
- Bacterial Count (E. coli NCTC 10418; maintained cephazolin 4.0 mg/L, 0 h): 5.88 ± 0.06 log 10 u/mL
- Bacterial Count (E. coli NCTC 10418; maintained cephazolin 4.0 mg/L, 2 h): 3.61 ± 0.22 log 10 u/mL
- Bacterial Count (E. coli NCTC 10418; maintained cephazolin 4.0 mg/L, 8 h): 4.38 ± 0.42 log 10 u/mL
- Bacterial Count (E. coli NCTC 10418; maintained cephazolin 4.0 mg/L, 24 h): 6.14 ± 0.93 log 10 u/mL
- Bacterial Count (E. coli NCTC 10418; maintained cephazolin 12.5 mg/L, 0 h): 5.85 ± 0.14 log 10 u/mL
- Bacterial Count (E. coli NCTC 10418; maintained cephazolin 12.5 mg/L, 2 h): 3.11 ± 0.26 log 10 u/mL
- Bacterial Count (E. coli NCTC 10418; maintained cephazolin 12.5 mg/L, 8 h): 2.18 ± 0.63 log 10 u/mL
- Bacterial Count (E. coli NCTC 10418; maintained cephazolin 12.5 mg/L, 24 h): 4.77 ± 1.89 log 10 u/mL
- Bacterial Count (E. coli NCTC 10418; maintained cephazolin 50 mg/L, 0 h): 5.93 ± 0.11 log 10 u/mL
- Bacterial Count (E. coli NCTC 10418; maintained cephazolin 50 mg/L, 2 h): 2.17 ± 0.39 log 10 u/mL
- Bacterial Count (E. coli NCTC 10418; maintained cephazolin 50 mg/L, 8 h): 1.55 ± 0.93 log 10 u/mL
- Bacterial Count (E. coli NCTC 10418; maintained cephazolin 50 mg/L, 24 h): 1.56 ± 1.14 log 10 u/mL
- Bacterial Count (E. coli NCTC 10418; maintained cephazolin 75 mg/L, 0 h): 5.82 ± 0.23 log 10 u/mL
- Bacterial Count (E. coli NCTC 10418; maintained cephazolin 75 mg/L, 2 h): 2.09 ± 0.29 log 10 u/mL
- Bacterial Count (E. coli NCTC 10418; maintained cephazolin 75 mg/L, 8 h): 1.11 ± 0.96 log 10 u/mL
- Bacterial Count (E. coli NCTC 10418; maintained cephazolin 75 mg/L, 24 h): 1.05 ± 1.23 log 10 u/mL
- Bacterial Count (E. coli NCTC 10418; maintained cephazolin 100 mg/L, 0 h): 5.85 ± 0.08 log 10 u/mL
- Bacterial Count (E. coli NCTC 10418; maintained cephazolin 100 mg/L, 2 h): 2.01 ± 0.26 log 10 u/mL
- Bacterial Count (E. coli NCTC 10418; maintained cephazolin 100 mg/L, 8 h): 0.86 ± 0.95 log 10 u/mL
- Bacterial Count (E. coli NCTC 10418; maintained cephazolin 100 mg/L, 24 h): 0.70 ± 0.78 log 10 u/mL
- Bacterial Count (E. coli NCTC 10418; maintained cephazolin 200 mg/L, 0 h): 5.86 ± 0.04 log 10 u/mL
- Bacterial Count (E. coli NCTC 10418; maintained cephazolin 200 mg/L, 2 h): 2.16 ± 0.24 log 10 u/mL
- Bacterial Count (E. coli NCTC 10418; maintained cephazolin 200 mg/L, 8 h): 0.78 ± 0.87 log 10 u/mL
- Bacterial Count (E. coli NCTC 10418; maintained cephazolin 200 mg/L, 24 h): 1.43 ± 0.74 log 10 u/mL
- Bacterial Count (E. coli NCTC 10418; maintained cephazolin 250 mg/L, 0 h): 5.81 ± 0.03 log 10 u/mL
- Bacterial Count (E. coli NCTC 10418; maintained cephazolin 250 mg/L, 2 h): 1.82 ± 0.44 log 10 u/mL
- Bacterial Count (E. coli NCTC 10418; maintained cephazolin 250 mg/L, 8 h): 1.22 ± 0.96 log 10 u/mL
- Bacterial Count (E. coli NCTC 10418; maintained cephazolin 250 mg/L, 24 h): 1.61 ± 0.86 log 10 u/mL
- Time at which early bactericidal effect was evident [2, 7]: ≤ 2.5 h
- Time at which regrowth was evident [2, 7]: 24.5 h
- Outcome of exposure [2]: complete kill or eradication was not achieved

Structure (SMILES): NC[C@H]1O[C@H](O[C@H]2[C@H](O)[C@@H](O[C@H]3O[C@H](CO)[C@@H](O)[C@H](N)[C@H]3O)[C@H](N)C[C@@H]2N)[C@H](N)C[C@@H]1O [tobramycin]
- MIC [3]: 1 µg/mL (≈ 2.14 µM)
- Maintained level required ([4]; combined with 18 mg/l peak): 1 mg/L
- Peak concentration required ([4]; combined with maintained level): 18 mg/L
- MIC [5]: 2 to 4 µg/mL (≈ 4.28 to 8.56 µM)
- Outcome of tobramycin profile [6]: complete kill

Structure (SMILES): Cc1onc(-c2c(F)cccc2Cl)c1C(=O)N[C@@H]1C(=O)N2[C@@H]1SC(C)(C)[C@@H]2C(=O)O [flucloxacillin]
- Outcome of exposure [2]: complete kill or eradication was not achieved
